# Test results reported in patent US11834414B2, “1-methyl-4-[(4-phenylphenyl)sulfonylmethyl]cyclohexyanol and 1-methyl-4-[[4-(2-pyridyl)phenyl]sulfonylmethyl]cyclohexanol compounds and their therapeutic use” (Modern Biosciences Limited, priority 2018, dated 2023).
# What was measured:
# CYP2D6 = CYP2D6 (Homo sapiens (Human), UniProt P10635); assay: Human Cytochrome P450 Inhibition Assay (Bactosomes); assay type: in vitro ADME; details: recombinant Bactosomes, 10 minutes, 37° C.
# CYP2C19 = CYP2C19 (Homo sapiens (Human), UniProt P33261); assay: as above; assay type: in vitro ADME; details: recombinant Bactosomes, 10 minutes, 37° C.
# [1] = Aqueous solubility in FaSSIF; assay type: physicochemical; details: pH 6.5, three replicates; for solubility at 16 h: kinetic from dmso stock
# Procedure: Aqueous solubility was measured by equilibration of compounds with fasted state simulated intestinal fluid (FaSSIF) and quantified spectrophotometrically.
# Preparation of blank FaSSIF: 0.21 g of sodium hydroxide (NaOH) pellets, 1.97 g of dihydrogen sodium phosphate (NaH2PO4.2H2O) and 3.09 g of sodium chloride (NaCl) were dissolved in 400 mL of deionised water. The pH was adjusted to 6.5 using 1 M hydrochloric acid and further deionised water added to a final volume of 500 mL.
# Preparation of FaSSIF: 0.056 g of SIF Powder (containing sodium taurocholate and lecithin) (Phares AG) was dissolved in 25 mL of blank FaSSIF and stirred until the powder was completely dissolved. The solution was allowed to stand for 2 hours during which it became opalescent; it was used within 24 hours. The final solution composition was characterised as follows: • Sodium taurocholate: 3 mM • Lecithin: 0.75 mM • Osmolarity: 270±10 mOsmol • pH: 6.5
# The optical density was measured at the end of the incubation period for test compounds and a reference used to determine solubility. In brief, two samples were prepared for each determination: a reference sample consisting of a stock solution of test compound in DMSO diluted in system solution (a phosphate free, low absorption buffer) and propanol; and a test sample (prepared in triplicate) consisting of 0.5 mL FaSSIF spiked with test compound at 0.2 mM. Each sample was incubated at room temperature for 16 hours with constant shaking at 250 rpm. At the end of the incubation period, 0.3 mL of each sample was filtered through a pION filter plate (PION, Woburn MA), diluted 1:1 with propanol and scanned using UV spectrophotometry at λmax ([…]) using a Spectra Max Plus—Version 2.1000 (Molecular Devices, Sunnyvale, CA), with pSOL Explorer solubility determination software (pION, Woburn, MA).
# FaSSIF solubility was calculated using the following formula:
# [formula] • wherein: • “OD” is the optical density; • “Cr” is the concentration of the reference (33.4 μM); and • “molecular weight” is for the test compound (e.g., 381.44 for ABD735).
# hERG ion channel = hERG ion channel (Homo sapiens (Human), UniProt Q12809); assay: hERG Ion Channel Assay; assay type: cell-based; details: for IC50: hERG ion channel activity, hERG-CHO cells; for hERG cardiac safety profile (in words): compared to reference compounds such as ABD599 and ABD899
# Procedure: When the ability of hERG to conduct electrical current across the cell membrane is inhibited or compromised, it can result in a potentially fatal disorder called long QT syndrome. This association between hERG and long QT syndrome has made hERG inhibition an important anti-target that must be avoided during drug development.
# The activity of the compounds against the hERG ion channel was tested using two approaches: a binding assay and an automated patch-clamp, Q-patch method using stably transfected Chinese Hamster Ovary cells (hERG-CHO). hERG-CHO cells were cultured in F-12 Kaighn's Nutrient Mixture medium (Invitrogen)+10% FBS at 37° C. for 1-3 days. Cells were kept at 30° C. for 24 to 48 hours prior to patch clamping in order to increase the hERG current amplitude. Subsequently, the cells were harvested by trypsinisation, and kept in Serum Free Medium (SFM) in the Q-patch cell preparation state for up to 6 hours at room temperature before being washed and re-suspended in extracellular solution and applied to the patch clamp sites for data recording.
# Patch-clamp voltage protocol: After whole cell configuration was achieved, the cell was held at −80 mV. A 50 millisecond pulse to −40 mV was delivered to measure the leaking current, which was subtracted from the tail current on-line. Then the cell was depolarized to +20 mV for 2 seconds, followed by a one second pulse to −40 mV to reveal hERG tail current. This paradigm was delivered once every 5 seconds to monitor the current amplitude.
# Extracellular solution: 137 mM NaCl, 4 mM KCl, 1.8 mM CaCl2), 1 mM MgCl2, 10 mM D(+)-glucose, 10 mM HEPES buffer (pH adjusted to 7.4 with NaOH).
# After the whole cell configuration was achieved, the extracellular solution (control) was applied first and the cell was stabilized for 2 minutes in extracellular solution. The test compound was then applied from low concentrations to high concentrations cumulatively. The cell was incubated with each test concentration for 5 minutes. During each incubation, the cell was repetitively stimulated using the voltage protocol described above, and the tail current amplitude was continuously monitored.
# Acceptance Criteria: • (1) Peak tail current >100 pA in control. • (2) Initial run-down <30% and the run-down stops before first application of the test compound. • (3) Leak currents <50% of the control peak tail currents at any time. • (4) rs<20 MΩ throughout the experiment.
# The degree of inhibition (%) was obtained by measuring the tail current amplitude, induced by a one second test pulse to −40 mV after a two second pulse to +20 mV, before and after incubation with the test compound. The difference in current was normalized to control and multiplied by 100 in order to obtain the percent inhibition.
# Concentration (log) response curves were fitted to a logistic equation (three parameters assuming complete block of the current at very high test compound concentrations) to generate estimates of the 50% inhibitory concentration (IC50). The concentration-response relationship of each compound was constructed from the percentage reductions of current amplitude by sequential concentrations.
# CYP2C19, sequence (P33261 whole entry): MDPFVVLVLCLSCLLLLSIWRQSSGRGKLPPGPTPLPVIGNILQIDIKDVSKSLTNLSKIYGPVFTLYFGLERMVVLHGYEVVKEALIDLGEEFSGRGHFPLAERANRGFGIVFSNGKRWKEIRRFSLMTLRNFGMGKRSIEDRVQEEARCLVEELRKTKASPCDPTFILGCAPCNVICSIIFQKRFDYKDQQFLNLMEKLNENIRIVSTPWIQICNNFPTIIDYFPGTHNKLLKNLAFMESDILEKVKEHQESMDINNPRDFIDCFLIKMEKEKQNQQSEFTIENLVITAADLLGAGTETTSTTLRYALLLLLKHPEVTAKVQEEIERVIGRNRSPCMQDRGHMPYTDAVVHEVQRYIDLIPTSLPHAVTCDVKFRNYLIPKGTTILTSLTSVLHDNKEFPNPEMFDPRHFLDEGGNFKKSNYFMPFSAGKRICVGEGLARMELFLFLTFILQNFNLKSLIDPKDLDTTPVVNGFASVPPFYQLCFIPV
# CYP2D6, sequence (P10635 whole entry): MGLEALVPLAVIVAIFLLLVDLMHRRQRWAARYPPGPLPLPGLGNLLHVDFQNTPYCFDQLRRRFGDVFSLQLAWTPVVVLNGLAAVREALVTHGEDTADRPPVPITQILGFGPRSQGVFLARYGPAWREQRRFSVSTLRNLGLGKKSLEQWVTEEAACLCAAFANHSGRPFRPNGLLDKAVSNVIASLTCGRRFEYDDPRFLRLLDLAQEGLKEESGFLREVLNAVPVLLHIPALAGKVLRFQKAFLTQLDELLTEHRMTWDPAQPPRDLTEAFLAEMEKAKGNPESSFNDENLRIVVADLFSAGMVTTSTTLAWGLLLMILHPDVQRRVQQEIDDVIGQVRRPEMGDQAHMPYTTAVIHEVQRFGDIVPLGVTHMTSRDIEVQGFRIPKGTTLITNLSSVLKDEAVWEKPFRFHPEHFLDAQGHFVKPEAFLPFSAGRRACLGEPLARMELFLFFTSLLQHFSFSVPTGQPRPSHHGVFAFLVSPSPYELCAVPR
# hERG ion channel, sequence (Q12809 whole entry): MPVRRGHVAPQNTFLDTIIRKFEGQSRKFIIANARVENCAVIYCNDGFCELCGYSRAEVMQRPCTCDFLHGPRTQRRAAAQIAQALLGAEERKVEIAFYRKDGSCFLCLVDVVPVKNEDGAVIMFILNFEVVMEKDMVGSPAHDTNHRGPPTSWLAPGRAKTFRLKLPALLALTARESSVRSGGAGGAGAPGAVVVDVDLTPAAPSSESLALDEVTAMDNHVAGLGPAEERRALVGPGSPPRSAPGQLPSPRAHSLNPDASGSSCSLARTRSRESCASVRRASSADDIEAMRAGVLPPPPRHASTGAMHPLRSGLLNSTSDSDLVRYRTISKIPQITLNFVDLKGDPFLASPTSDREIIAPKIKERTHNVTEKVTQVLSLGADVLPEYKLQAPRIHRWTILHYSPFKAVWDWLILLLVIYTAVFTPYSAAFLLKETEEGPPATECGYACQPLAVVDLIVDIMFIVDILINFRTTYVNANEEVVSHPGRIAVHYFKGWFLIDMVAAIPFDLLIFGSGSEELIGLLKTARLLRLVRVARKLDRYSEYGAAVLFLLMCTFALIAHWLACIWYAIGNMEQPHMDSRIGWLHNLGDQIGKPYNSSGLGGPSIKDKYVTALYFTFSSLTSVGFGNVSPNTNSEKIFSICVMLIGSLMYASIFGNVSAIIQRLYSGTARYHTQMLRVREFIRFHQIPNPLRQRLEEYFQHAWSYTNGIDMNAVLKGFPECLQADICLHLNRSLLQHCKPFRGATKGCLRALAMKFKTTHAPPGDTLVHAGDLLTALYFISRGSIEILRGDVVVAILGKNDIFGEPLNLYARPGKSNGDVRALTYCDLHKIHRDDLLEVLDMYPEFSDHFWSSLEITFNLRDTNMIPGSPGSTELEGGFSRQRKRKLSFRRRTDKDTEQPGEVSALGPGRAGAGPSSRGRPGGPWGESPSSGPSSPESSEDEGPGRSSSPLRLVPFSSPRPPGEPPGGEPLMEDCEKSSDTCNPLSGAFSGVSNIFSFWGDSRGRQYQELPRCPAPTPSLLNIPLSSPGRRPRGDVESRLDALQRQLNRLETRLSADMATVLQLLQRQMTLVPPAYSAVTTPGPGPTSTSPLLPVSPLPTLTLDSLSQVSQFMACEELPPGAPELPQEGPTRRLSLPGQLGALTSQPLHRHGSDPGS
smiles,measurement,setting,value
"C[C@]1(O)CC[C@@H](CS(=O)(=O)c2ccc(-c3ccc(C#N)cc3F)cc2)CC1 [CHMSA-01-A, 2-fluoro-4′-(((cis-4-hydroxy-4-methylcyclohexyl)methyl)sulfonyl)-[1,1′-biphenyl]-4-carbonitrile]",IC50,CYP2D6,> 50 µM
same,IC50,CYP2C19,> 50 µM
same,solubility at 16 h,[1],10 µg/mL
same,IC50,hERG ion channel,24 µM
"C[C@]1(O)CC[C@@H](CS(=O)(=O)c2ccc(-c3ncc(F)cc3F)c(F)c2)CC1 [CHMSA-03-A, cis-4-(((4-(3,5-difluoropyridin-2-yl)-3-fluorophenyl)sulfonyl)methyl)-1-methylcyclohexan-1-ol]",IC50,CYP2D6,> 50 µM
same,IC50,CYP2C19,> 50 µM
same,solubility at 16 h,[1],70 µg/mL
same,hERG cardiac safety profile (in words),hERG ion channel,particularly positive profile
same,IC50,hERG ion channel,> 100 µM
"C[C@]1(O)CC[C@@H](CS(=O)(=O)c2ccc(-c3ccc(C#N)cc3F)cc2C(F)(F)F)CC1 [CHMSA-02-A, 2-fluoro-4′-(((cis-4-hydroxy-4-methylcyclohexyl)methyl)sulfonyl)-3′-(trifluoromethyl)-[1,1′-biphenyl]-4-carbonitrile]",IC50,CYP2D6,> 50 µM
same,IC50,CYP2C19,> 50 µM
same,solubility at 16 h,[1],20 µg/mL
same,hERG cardiac safety profile (in words),hERG ion channel,particularly positive profile
same,IC50,hERG ion channel,> 100 µM
"C[C@]1(O)CC[C@H](NS(=O)(=O)c2ccc(-c3ccc(Cl)cc3C#N)cc2)CC1 [HMC-C-01-A, reference compound]",IC50,CYP2D6,16.6 µM
same,IC50,CYP2C19,> 25 µM
same,Solubility,[1]; 16 hours,60 µg/mL
